Laboratory results published in US20080305049A1, “Mri Contrast Agents for Diagnosis and Prognosis of Tumors” (priority 2005, published 2008).
Entries after “also recorded” stand apart in the source; their conditions may differ. Values belong to the compound of their own block, whether it stands above or below them.

Key:
MDA-MB-231 cells = assay: proliferation of ER− human breast cancer cells (MTT method)
Procedure: The number of cells was determined spectrophotometrically using the MTT [3-(4,5-dimethylthiazol-2-yl)-2,5-diphenyltetrazolium bromide] method. The samples are read using an ELISA plate reader at a wavelength of 570 nm. The amount of color produced is directly proportional to the number of viable cells.

[1] = target: T1, human recombinant ER (ERα) (Homo sapiens, UniProt P03372); assay: competitive radiometric binding assay with tritiated estradiol; details: for IC50 / Ki: human recombinant ER; for IC50: read-out: IC50, concentration of competing ligand required to replace half of the ER bound tritiated estradiol; for Ki: read-out: Ki, calculated equilibrium concentration of competing ligand that binds half of the ER binding sites
T1 sequence (P03372 1-595): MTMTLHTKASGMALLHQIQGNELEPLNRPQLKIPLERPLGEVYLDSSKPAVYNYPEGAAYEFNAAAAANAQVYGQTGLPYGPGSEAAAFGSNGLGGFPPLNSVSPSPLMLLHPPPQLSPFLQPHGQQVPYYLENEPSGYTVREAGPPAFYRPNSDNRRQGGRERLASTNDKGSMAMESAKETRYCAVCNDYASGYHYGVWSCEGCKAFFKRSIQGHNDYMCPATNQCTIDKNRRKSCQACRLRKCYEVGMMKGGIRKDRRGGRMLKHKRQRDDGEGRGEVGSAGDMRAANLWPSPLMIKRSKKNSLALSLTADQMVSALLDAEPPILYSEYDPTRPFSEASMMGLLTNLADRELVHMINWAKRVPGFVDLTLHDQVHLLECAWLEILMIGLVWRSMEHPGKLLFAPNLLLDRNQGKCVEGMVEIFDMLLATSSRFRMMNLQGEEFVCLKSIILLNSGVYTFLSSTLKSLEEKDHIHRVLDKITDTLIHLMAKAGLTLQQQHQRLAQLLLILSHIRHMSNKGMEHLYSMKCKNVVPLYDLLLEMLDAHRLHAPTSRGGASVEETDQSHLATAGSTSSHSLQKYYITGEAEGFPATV
Procedure: This procedure yields IC50 displacement values for the inhibition of the binding of tritiated estradiol to the ER. Low IC50 values correlates to high binding affinities.
The binding affinities were determined by performing a competitive radiometric-binding assay using tritiated estradiol and human recombinant ER. […] Table 1 presents the concentration of the competing ligand required to replace half of the ER bound tritiated estradiol, IC50, and the calculated equilibrium concentration of the competing ligand that will bind to half of the ER binding sites, Ki.

[2] = target: T2, estrogen receptor (ER)-α in MCF7 cells (Homo sapiens, UniProt P03372); assay: Western blot of ER-α level relative to tubulin; assay type: cell-based; details: 6 hours after treatment
T2 construct: endogenous in cells; host or cells: MCF7 human breast cancer cells
T2 sequence (P03372 1-595): T1 sequence (P03372 1-595)
Text: FIG. 10B is a graph showing the quantitative analysis of the blots in terms of ER expression relative to tubulin expression under the various treatments as indicated in the figure.
We then carried out a Western blot for determining the level of the estrogen receptor protein using an anti-ER antibody to identify ER in the blot. […] FIG. 10A depicts the Western blot and FIG. 10B depicts quantitation of the blot: the amount of ER relative to tubulin, assuming tubulin is constant under all treatment manipulations.

[3] = system: MCF7, T47D and ZR-75-1 ER+ human breast cancer cells; assay: proliferation of ER+ human breast cancer cells (MTT method); assay type: cell-based; details: for agonistic or antagonistic effect on proliferation: 2 μM
Procedure: The agonistic or antagonistic effects of the conjugates and metal complexes thereof were studied by their capacity to enhance or arrest cell growth, respectively.
The vehicle (water) was added as control and served to normalize the changes in cell number.

[4] = T1 and T2 relaxivity of water at 4.7 Tesla; assay type: physicochemical
Procedure: The T1 and T2 relaxivity of the MRI probes, i.e., the Gd complexes of the invention, were measured in saline solutions using standard protocols (i.e inversion recovery for T1 relaxivity and Carr-Purcell-Meiboom-Gill (CPMG) for T2 relaxivity).
The capacity of the Gd complex 7 to serve as a relaxation contrast agent was determined by measuring its relaxivity. […] For the T1 relaxivity measurement, a spin echo sequence was employed with a varying repetition time-TR (11 TRs, from 50 to 15,000 msec) and a fixed echo time of 23 msec.
The T1 relaxivity was determined from the slope.
We determined the MRI properties of the novel paramagnetic ER ligands. T1 and T2 relaxation rates of the water protons were measured as a function of the concentration of the Gd complex 7.

[5] = in vivo MRI monitoring of distribution and binding in mice with orthotopic MCF7 breast tumor; design: species or system CD1-NU immunodeficient female mice; details: female, CD1-NU, mouse, tumor (orthotopic MCF7 breast tumor), intravenous; 24 hours after bolus 0.024 mmol/kg, calculated from relaxation rates; read-out: apparent concentration in the tumor
Text: (§1) Animals: CD1-NU immunodeficient female mice (6-10 weeks old, 20-25 g weight) were provided by the Animal Unit of the Weizmann Institute of Science. During the MRI experiments, the animals were anesthetized by inhalation of 1% Isoflurane in an O2:N2O (3:7) mixture, applied through a nose cone. All animals were handled according to the regulations formulated by the Institutional Animal Care and Use Committee (IACUC) of the Weizmann Institute of Science (Rehovot, Israel).
(§2) Tumors: ER^+ human breast cancer MCF-7 cells were implanted orthotopically into the mammary gland of the CD1-NU immunodeficient female mice, as previously described (Paran et al., 2004). The mice were ovariectomized to eliminate any […] estrogen. Initially a pellet of 17β-estradiol (Innovative Research, Florida) was implanted before the cells were injected, to ensure growth of the tumors. Within 3 weeks, tumors developed to a size of about ˜0.5 ml and consisted of highly proliferating cells. At this stage we removed the estrogen pellet and after a week administered the MRI probe. The extent of accumulation in the tumors was studied in vivo and in excised tumors and was then compared to results obtained by the standard immunostaining technique.
(§3) MRI: The accumulation of the MRI probe was tested by scanning the tumors before the injection of the probe and at times after the injection, using T1 weighted and T2 weighted pulse sequences. MR images were recorded with a 4.7 Tesla scanner (Bruker; Biospec 4.7 T/30 cm bore, dedicated Doty resonator, 3 cm diameter, 200 MHz for protons). The MRI parameters for scanning T2-weighted images were: 2D Spin echo with: TE/TR=69 msec/4000 msec, field of view (FOV) 5 cm, slice thickness 1.2 mm and 128×256 matrix. For T1 measurements two pulse sequences were employed: 1. Inversion recovery pulse sequence with varying T1 (n=20) ranging from 10 to 10000 msec, TE/TR=3.15 msec/15 msec, flip angle 10 degrees; 2. Fast gradient echo sequence. The spatial resolution was as in the T2 weighted image except the matrix was 128×128.
(§4) Distribution of the MR probes: The distribution of the Gd complex 7 in the blood, inner organs and the tumors was monitored over a period of 24 h after a bolus injection of 7 into the tail vein at a dose ranging from 0.024 to 0.4 mmol/kg.
(§5) The contrast agent distribution was monitored, alternating between two pulse sequences: 1. T1-weighted, 3D gradient echo with TE/TR of 4.3/18.3 ms; a 30° flip angle, 2. 2D inversion or saturation recovery sequence with varying T1 (n=20) ranging from 10 to 10000 msec, and gradient echo acquisition with TE/TR of 3.5/15 msec and 100 flip angel. The latter sequence enabled us to map the T1 relaxation time. The spatial resolution was the same for both sequences and during the whole experiment time, namely, 0.2×0.4×1.2 mm^3. Susceptibility gradient echo and T2 weighted spin echo protocols were employed to generate the MR images of the animal.
(§6) Several protocols of administration of the Gd complex 7 were examined: a high and low dose bolus injection of 0.4 mmol/kg and 0.024 mmol/kg, respectively (FIGS. 7 and 8), and a slow infusion (drip) protocol over 60 min of the high dose.
(§7) To determine the ER-binding of 7 administered at low concentration (0.024 mmol/kg), we performed measurements up to 24 after its administration, when all the tissues appeared to be cleared from the probe. FIGS. 7A-7B show the time course of the T1 relaxation in the bladder, orthotopic MCF7 breast tumor and muscle of a female CD1-NU immunodeficient mouse after a bolus administration of a low dose of 7 (0.024 mmol/kg) (7B) and the area of each organ as marked on the upper T2-weighted image (FIG. 7A). The images at 0, 0.5 and 2.5 h were recorded with the anaesthetized mouse in the same position. After the 2.5 h measurement, the mouse was returned to its cage and was again scanned under anesthesia at the 7 and 24 hours time points. […] The central slice of each organ is presented. […]

[6] = system: orthotopic ER+ MCF7 breast tumor; assay: as above; design: species or system CD1-NU immunodeficient female mice
Text: as §1, §2, §3, §4, §5, §6, §7

rat uterus = assay: MRI of the uterus of ovariectomized rats; assay type: in vivo; details: 0.024 mmol/kg
Procedure: We developed and applied in vivo tests of the Gd complex 7 in the classical target organ of estrogen (the rat uterus). […] In order to be able to delineate the uterus, we applied a newly developed segmentation algorithm that enables us to automatically monitor changes in the entire uterine volume and in the changing nuclear relaxation rates due to interaction with 7. […] The endometrium volume increased by 45%, over the entire monitoring period of 5.5 hours, indicating response to the Gd complex 7, as shown in FIGS. 11A-11E.
FIG. 11A depicts the T2-weighted images prior to administration and FIG. 11B depicts the T2-weighted images after 5 hours of administration of compound 7 (the endometrium is circled in green) with the corresponding 3D automatically delineated right horn (FIGS. 11C and 11D) and the corresponding changes in the volume during the entire time course (FIG. 11E).

[7] = toxicology after intravenous injection; assay type: in vivo, CD1-NU mice
Text: as §1
Toxicology: The probes (e.g. Gd complex 7) were injected into the tail vein of CD1-NU mice at a varying dose in the range of 0.024 to 1.0 mmol/kg weight.

[8] = bolus 0.4 mmol/kg, about 5 hours

Structure (SMILES): C[C@]12CC[C@@H]3c4ccc(O)cc4CC[C@H]3[C@@H]1CC[C@@H]2O [17β-estradiol, reference compound]
sensitivity of proliferation of ER− cells (MDA-MB-231 cells): neither sensitive

Structure (SMILES): C[C@]12CCC3c4ccc(O)cc4CCC3C1CC[C@@]2(O)C#Cc1cc(CN(CC(=O)O)CC(=O)O)nc(CN(CC(=O)O)CC(=O)O)c1 (stereo partly shown) [Compound 6]
IC50 [1]: 4.4 µM
Ki [1]: 0.4 µM
effect on ER-α level [2]: induced partial degradation of the receptor; also recorded: induce ER reduction
sensitivity of proliferation of ER− cells (MDA-MB-231 cells): neither sensitive
dose at which induction of proliferation occurred ([3]; ER+ human breast cancer cells): nanomolar
stimulation of cell growth ([3]; MCF7, T47D, ZR-75-1, 30 nM or 1 μM): stimulated the growth of the cells in a similar manner to that of estrogen
agonistic or antagonistic effect on proliferation ([3]; MCF7, T47D): agonistic
toxicity to cells ([3]; high concentrations): toxic at high concentrations

Structure (SMILES): CC12CCC3c4ccc(O)cc4CCC3C1CCC2(O)C#Cc1cc(CN(CC(=O)O)CC(=O)O)nc(CN(CC(=O)O)CC(=O)O)c1 (stereo not shown) [Compound 7]
T1 relaxivity [4]: 7.99 ± 0.05 mM⁻¹ s⁻¹
T2 relaxivity [4]: 30.8 ± 1.0 mM⁻¹ s⁻¹
concentration at 24 h [5]: 2500 nM
final concentration in tumor versus muscle ([6]; 2 h after 1 hour slow infusion of 0.4 mmol/kg): similar
muscle T1 relaxation rate (R1) ([6]; 24 hours after 0.024 mmol/kg): returned to that measured before
tumor T1 relaxation rate (R1) increase ([6]; 24 hours after 0.024 mmol/kg): small but persistent
residual amount in the muscle ([6]; 24 hours after bolus 0.024 mmol/kg): no residual amount
clearance through the kidneys into the urine compared with GdDTPA ([6]; bolus 0.4 mmol/kg): several folds slower
time of full clearance after administration ([6]; bolus 0.4 mmol/kg): 24 h
MRI signal enhancement in the muscle [6, 8]: declined close to pre-contrast administration
MRI signal enhancement in the tumor [6, 8]: persisted throughout the experimental time
binding affinity to ER (in words) [1]: strong binding affinity to ER, comparable to that of tamoxifen
effect on ER-α level [2]: induced partial degradation of the receptor; also recorded: induce ER reduction
sensitivity of proliferation of ER− cells (MDA-MB-231 cells): neither sensitive
effect in the uterus (rat uterus): agonistic effect in the uterus
increase of endometrium volume (rat uterus; over 5.5 hours): 45%
toxicity (summary statement) ([7]; mice and rats): non toxic in mice and rats
tolerability of repetitive administration ([7]; repetitive administration 3-7 days apart): appeared to be harmless
lethality and adverse effects ([7]; up to 0.4 mmol/kg, intravenous, CD1-NU mice): not lethal and does not cause obvious adverse effects; also recorded: non-toxic

IC50 [1]: 5.3 µM
Ki [1]: 0.48 µM
Structure (SMILES): CC/C(=C(\c1ccc(C#Cc2cc(CN(CC(=O)O)CC(=O)O)nc(CN(CC(=O)O)CC(=O)O)c2)cc1)c1ccc(OCCN(C)C)cc1)c1ccccc1 [Compound 16]
effect on ER-α level [2]: acted like tamoxifen; also recorded: do not affect ER level
hormonal activity (summary statement) [3]: antagonist to estrogen
agonistic or antagonistic effect on proliferation ([3]; MCF7, T47D): did not elicit an estrogenic effect

effect on ER-α level [2]: down regulation
Structure (SMILES): C[C@]12CC[C@@H]3c4ccc(O)cc4C[C@@H](CCCCCCCCC[S+]([O-])CCCC(F)(F)C(F)(F)F)[C@H]3[C@@H]1CC[C@@H]2O (stereo partly shown) [ICI-182780, reference compound]
